Assay results: US9717748B2, “Compositions and methods for treating an infection” (CMPD LICENSING, LLC, priority 2015, dated 2017)

Tests used:
Aspergillus fumigatus = assay: Expected efficacy of antifungal agents
Aspergillus flavus = assay: Expected efficacy of antifungal agents
Cryptococcus neoformans = assay: Expected efficacy of antifungal agents
[1] = tested on: Methicillin resistant staphaureus (MRSA); assay: Expected efficacy of antibiotic agents; details: Gram: pos
Legionella pneumophila = details: Gram: neg
Pseudomonas aeruginosa = assay: Expected efficacy of antibiotic agents; details: Gram: neg
[2] = tested on: Klebsiella (Calymmato-bacterium) granulomatis; assay: Expected efficacy of antibiotic agents; details: Gram: neg
Acinetobacter baumannii = assay: Expected efficacy of antibiotic agents; details: Gram: neg
[3] = tested on: Staphylococcus epidermidis; assay: Expected efficacy of antibiotic agents; details: Gram: pos
Bacteroides fragilis = assay: Expected efficacy of antibiotic agents; details: Gram: anaer
Chlamydia pneumoniae = assay: Expected efficacy of antibiotic agents; details: Gram: n/a
Providencia stuartii = assay: Expected efficacy of antibiotic agents; details: Gram: neg
Clostridium difficile = assay: Expected efficacy of antibiotic agents; details: Gram: anaer
Moraxella catarrhalis = assay: Expected efficacy of antibiotic agents; details: Gram: neg
Proteus vulgaris = assay: Expected efficacy of antibiotic agents; details: Gram: neg
Clostridium perfringens = details: Gram: anaer
Enterococcus faecium = assay: Expected efficacy of antibiotic agents; details: Gram: pos
Enterobacter sakazakii = assay: Expected efficacy of antibiotic agents; details: Gram: neg
Chlamydia psittaci = details: Gram: n/a
Francisella tularensis = details: Gram: neg
Corynebacterium jeikeium = assay: Expected efficacy of antibiotic agents; details: Gram: pos
Morganella morganii = assay: Expected efficacy of antibiotic agents; details: Gram: neg
Providencia rettgeri = assay: Expected efficacy of antibiotic agents; details: Gram: neg
Klebsiella oxytoca = assay: Expected efficacy of antibiotic agents; details: Gram: neg
Pseudomonas fluorescens = assay: Expected efficacy of antibiotic agents; details: Gram: neg
Streptococcus agalactiae = assay: Expected efficacy of antibiotic agents; details: Gram: pos
Serratia marcescens = assay: Expected efficacy of antibiotic agents; details: Gram: neg
Escherichia coli = assay: Expected efficacy of antibiotic agents; details: Gram: neg
Enterococcus faecalis = assay: Expected efficacy of antibiotic agents; details: Gram: pos
Chlamydia trachomatis = assay: Expected efficacy of antibiotic agents; details: Gram: n/a
Citrobacter diversus = assay: Expected efficacy of antibiotic agents; details: Gram: neg
Enterobacter aerogenes = assay: Expected efficacy of antibiotic agents; details: Gram: neg
Mycoplasma pneumoniae = assay: Expected efficacy of antibiotic agents; details: Gram: n/a
Campylobacter jejuni = assay: Expected efficacy of antibiotic agents; details: Gram: neg
Brucella species = details: Gram: neg
Proteus mirabilis = assay: Expected efficacy of antibiotic agents; details: Gram: neg
[4] = tested on: Staphylococcus aureus (MSSA); assay: Expected efficacy of antibiotic agents; details: Gram: pos
Acinetobacter lwoffii = assay: Expected efficacy of antibiotic agents; details: Gram: neg
Enterobacter cloacae = assay: Expected efficacy of antibiotic agents; details: Gram: neg
[5] = tested on: Acinetobacter calcoaceticus; assay: Expected efficacy of antibiotic agents; details: Gram: neg
Streptococcus pyogenes = assay: Expected efficacy of antibiotic agents; details: Gram: pos
Klebsiella pneumoniae = assay: Expected efficacy of antibiotic agents; details: Gram: neg
Citrobacter freundii = assay: Expected efficacy of antibiotic agents; details: Gram: neg
Yersinia pestis = details: Gram: neg
Haemophilus ducreyi = assay: Expected efficacy of antibiotic agents; details: Gram: neg
[6] = tested on: Haemophilus parainfluenzae; assay: Expected efficacy of antibiotic agents; details: Gram: neg
Shigella sonnei = assay: Expected efficacy of antibiotic agents; details: Gram: neg
Salmonella typhi = assay: Expected efficacy of antibiotic agents; details: Gram: neg
Shigella flexneri = assay: Expected efficacy of antibiotic agents; details: Gram: neg
Shigella dysenteriae = assay: Expected efficacy of antibiotic agents; details: Gram: neg
Neisseria gonorrhoeae = assay: Expected efficacy of antibiotic agents; details: Gram: neg

OC(Cn1cncn1)(Cn1cncn1)c1ccc(F)cc1F [Fluconazole]
Expected efficacy against Coccidioides immitis (Coccidioides immitis): yes
Expected efficacy against Aspergillus fumigatus (Aspergillus fumigatus): yes
Expected efficacy against Aspergillus flavus (Aspergillus flavus): yes
Expected efficacy against Cryptococcus neoformans (Cryptococcus neoformans): yes

Azithromycin
Expected efficacy against Methicillin resistant staphaureus (MRSA) [1]: no
Expected efficacy against Legionella pneumophila (Legionella pneumophila): yes
Expected efficacy against Pseudomonas aeruginosa (Pseudomonas aeruginosa): no
Expected efficacy against Klebsiella (Calymmato-bacterium) granulomatis [2]: no
Expected efficacy against Acinetobacter baumannii (Acinetobacter baumannii): no
Expected efficacy against Staphylococcus epidermidis [3]: yes
Expected efficacy against Bacteroides fragilis (Bacteroides fragilis): no
Expected efficacy against Chlamydia pneumoniae (Chlamydia pneumoniae): yes
Expected efficacy against Providencia stuartii (Providencia stuartii): no
Expected efficacy against Clostridium difficile (Clostridium difficile): no
Expected efficacy against Moraxella catarrhalis (Moraxella catarrhalis): yes
Expected efficacy against Proteus vulgaris (Proteus vulgaris): no
Expected efficacy against Clostridium perfringens (Clostridium perfringens): no
Expected efficacy against Enterococcus faecium (Enterococcus faecium): no
Expected efficacy against Enterobacter sakazakii (Enterobacter sakazakii): no
Expected efficacy against Chlamydia psittaci (Chlamydia psittaci): yes
Expected efficacy against Francisella tularensis (Francisella tularensis): no
Expected efficacy against Corynebacterium jeikeium (Corynebacterium jeikeium): no
Expected efficacy against Morganella morganii (Morganella morganii): no
Expected efficacy against Providencia rettgeri (Providencia rettgeri): no
Expected efficacy against Klebsiella oxytoca (Klebsiella oxytoca): no
Expected efficacy against Pseudomonas fluorescens (Pseudomonas fluorescens): no
Expected efficacy against Streptococcus agalactiae (Streptococcus agalactiae): yes
Expected efficacy against Serratia marcescens (Serratia marcescens): no
Expected efficacy against Escherichia coli (Escherichia coli): no
Expected efficacy against Enterococcus faecalis (Enterococcus faecalis): no
Expected efficacy against Chlamydia trachomatis (Chlamydia trachomatis): yes
Expected efficacy against Citrobacter diversus (Citrobacter diversus): no
Expected efficacy against Enterobacter aerogenes (Enterobacter aerogenes): no
Expected efficacy against Mycoplasma pneumoniae (Mycoplasma pneumoniae): yes
Expected efficacy against Campylobacter jejuni (Campylobacter jejuni): yes
Expected efficacy against Brucella species (Brucella species): no
Expected efficacy against Proteus mirabilis (Proteus mirabilis): no
Expected efficacy against Staphylococcus aureus (MSSA) [4]: yes
Expected efficacy against Acinetobacter lwoffii (Acinetobacter lwoffii): no
Expected efficacy against Enterobacter cloacae (Enterobacter cloacae): no
Expected efficacy against Acinetobacter calcoaceticus [5]: no
Expected efficacy against Streptococcus pyogenes (Streptococcus pyogenes): yes
Expected efficacy against Klebsiella pneumoniae (Klebsiella pneumoniae): no
Expected efficacy against Citrobacter freundii (Citrobacter freundii): no

C[C@H]1c2cccc(O)c2C(=O)C2=C(O)[C@]3(O)C(=O)C(C(N)=O)=C(O)[C@@H](N(C)C)[C@@H]3[C@@H](O)[C@@H]21 [Doxycyline]
Expected efficacy against Legionella pneumophila (Legionella pneumophila): yes
Expected efficacy against Yersinia pestis (Yersinia pestis): yes
Expected efficacy against Pseudomonas aeruginosa (Pseudomonas aeruginosa): no
Expected efficacy against Klebsiella (Calymmato-bacterium) granulomatis [2]: yes
Expected efficacy against Acinetobacter baumannii (Acinetobacter baumannii): no
Expected efficacy against Staphylococcus epidermidis [3]: yes
Expected efficacy against Chlamydia pneumoniae (Chlamydia pneumoniae): yes
Expected efficacy against Haemophilus ducreyi (Haemophilus ducreyi): yes
Expected efficacy against Providencia stuartii (Providencia stuartii): no
Expected efficacy against Moraxella catarrhalis (Moraxella catarrhalis): yes
Expected efficacy against Proteus vulgaris (Proteus vulgaris): no
Expected efficacy against Enterococcus faecium (Enterococcus faecium): no
Expected efficacy against Chlamydia psittaci (Chlamydia psittaci): yes
Expected efficacy against Francisella tularensis (Francisella tularensis): yes
Expected efficacy against Morganella morganii (Morganella morganii): no
Expected efficacy against Providencia rettgeri (Providencia rettgeri): no
Expected efficacy against Serratia marcescens (Serratia marcescens): no
Expected efficacy against Enterococcus faecalis (Enterococcus faecalis): no
Expected efficacy against Chlamydia trachomatis (Chlamydia trachomatis): yes
Expected efficacy against Citrobacter diversus (Citrobacter diversus): no
Expected efficacy against Campylobacter jejuni (Campylobacter jejuni): yes
Expected efficacy against Brucella species (Brucella species): yes
Expected efficacy against Haemophilus parainfluenzae [6]: yes
Expected efficacy against Proteus mirabilis (Proteus mirabilis): no
Expected efficacy against Acinetobacter lwoffii (Acinetobacter lwoffii): no
Expected efficacy against Citrobacter freundii (Citrobacter freundii): no

O=C(O)c1cn(C2CC2)c2cc(N3CCNCC3)c(F)cc2c1=O [Ciprofloxacin]
Expected efficacy against Methicillin resistant staphaureus (MRSA) [1]: no
Expected efficacy against Legionella pneumophila (Legionella pneumophila): yes
Expected efficacy against Yersinia pestis (Yersinia pestis): yes
Expected efficacy against Shigella sonnei (Shigella sonnei): yes
Expected efficacy against Salmonella typhi (Salmonella typhi): yes
Expected efficacy against Pseudomonas aeruginosa (Pseudomonas aeruginosa): yes
Expected efficacy against Shigella flexneri (Shigella flexneri): yes
Expected efficacy against Staphylococcus epidermidis [3]: yes
Expected efficacy against Bacteroides fragilis (Bacteroides fragilis): no
Expected efficacy against Chlamydia pneumoniae (Chlamydia pneumoniae): yes
Expected efficacy against Providencia stuartii (Providencia stuartii): yes
Expected efficacy against Moraxella catarrhalis (Moraxella catarrhalis): yes
Expected efficacy against Shigella dysenteriae (Shigella dysenteriae): yes
Expected efficacy against Neisseria gonorrhoeae (Neisseria gonorrhoeae): yes
Expected efficacy against Enterococcus faecium (Enterococcus faecium): no
Expected efficacy against Francisella tularensis (Francisella tularensis): yes
Expected efficacy against Corynebacterium jeikeium (Corynebacterium jeikeium): no
Expected efficacy against Providencia rettgeri (Providencia rettgeri): yes
Expected efficacy against Campylobacter jejuni (Campylobacter jejuni): yes
Expected efficacy against Haemophilus parainfluenzae [6]: yes
Expected efficacy against Proteus mirabilis (Proteus mirabilis): yes
Expected efficacy against Staphylococcus aureus (MSSA) [4]: no
Expected efficacy against Klebsiella pneumoniae (Klebsiella pneumoniae): yes
Expected efficacy against Citrobacter freundii (Citrobacter freundii): yes
